According to ChEMBL document CHEMBL3885861, “Open TG-GATES”:

Organism: Rattus norvegicus
Assay: Open TG-GATES - Regimen: Single
Format: toxicity, organism-based, Sprague-Dawley
Parameters: regimen Single, gender Male, age 6 weeks
Conditions: in vivo, po, 300 mg/kg, route gavage, dose level Middle; for APTT / Bas / Eos / Fbg / Hb / Ht / Lym / MCH / MCHC / MCV / Mono / Neu / PT / Plat / RBC / Ret / WBC: tissue Blood; for KIDNEY_L / KIDNEY_R / KIDNEY_TOTAL: tissue Kidney; for LIVER: tissue Liver; for A/G / ALP / ALT / AST / BUN / CRE / Ca / Cl / DBIL / GLC / IP / K / LDH / Na / PL / RALB / TBIL / TC / TG / TP / gamma-GTP: tissue Plasma

CN(C)[C@@H]1C(O)=C(C(N)=O)C(=O)[C@@]2(O)C(O)=C3C(=O)c4c(O)cccc4[C@@](C)(O)[C@H]3C[C@@H]12 [TETRACYCLINE]
TERMINAL_BW (3 h): 186.7 g | APTT (3 h): 16.4 s | Bas (3 h): 0% | Eos (3 h): 0.6% | Fbg (3 h): 198 mg/dL | Hb (3 h): 13.6 g/dL | Ht (3 h): 41% | Lym (3 h): 76.4% | MCH (3 h): 21.9 pg | MCHC (3 h): 33.1% | MCV (3 h): 66.2 fL | Mono (3 h): 8.4% | Neu (3 h): 14.8% | PT (3 h): 12.3 s | Plat (3 h): 97.2 x10_4/uL | RBC (3 h): 619.2 x10_4/ul | Ret (3 h): 10% | WBC (3 h): 122.2 x10_2/uL | KIDNEY_L (3 h): 0.9 g | KIDNEY_R (3 h): 0.9 g | KIDNEY_TOTAL (3 h): 1.8 g | LIVER (3 h): 9 g | A/G (3 h): 1.9 | ALP (3 h): 940.2 IU/L | ALT (3 h): 42.2 IU/L | AST (3 h): 74.4 IU/L | BUN (3 h): 13.2 mg/dL | CRE (3 h): 0.5 mg/dL | Ca (3 h): 10.9 mg/dL | Cl (3 h): 104.6 meq/L | DBIL (3 h): 0.026 mg/dL | GLC (3 h): 179.6 mg/dL | IP (3 h): 11.5 mg/dL | K (3 h): 5.4 meq/L | LDH (3 h): 103 IU/L | Na (3 h): 137.2 meq/L | PL (3 h): 129.6 mg/dL | RALB (3 h): 3.6 g/dL | TBIL (3 h): 0.4 mg/dL | TC (3 h): 71.4 mg/dL | TG (3 h): 39.4 mg/dL | TP (3 h): 5.5 g/dL | gamma-GTP (3 h): 1.6 IU/L | TERMINAL_BW (6 h): 183.9 g | APTT (6 h): 17.1 s | Bas (6 h): 0% | Eos (6 h): 0.6% | Fbg (6 h): 206.8 mg/dL | Hb (6 h): 13.4 g/dL | Ht (6 h): 40.3% | Lym (6 h): 78.6% | MCH (6 h): 22.5 pg | MCHC (6 h): 33.3% | MCV (6 h): 67.7 fL | Mono (6 h): 5.6% | Neu (6 h): 15.4% | PT (6 h): 12.1 s | Plat (6 h): 103.8 x10_4/uL | RBC (6 h): 595.2 x10_4/ul | Ret (6 h): 10.1% | WBC (6 h): 91.7 x10_2/uL | KIDNEY_L (6 h): 0.9 g | KIDNEY_R (6 h): 0.9 g | KIDNEY_TOTAL (6 h): 1.7 g | LIVER (6 h): 8.3 g | A/G (6 h): 2.1 | ALP (6 h): 930.4 IU/L | ALT (6 h): 36.4 IU/L | AST (6 h): 72.4 IU/L | BUN (6 h): 12.4 mg/dL | CRE (6 h): 0.4 mg/dL | Ca (6 h): 10.7 mg/dL | Cl (6 h): 106 meq/L | DBIL (6 h): 0.012 mg/dL | GLC (6 h): 193.8 mg/dL | IP (6 h): 11.1 mg/dL | K (6 h): 5.2 meq/L | LDH (6 h): 104.4 IU/L | Na (6 h): 137.2 meq/L | PL (6 h): 130.6 mg/dL | RALB (6 h): 3.6 g/dL | TBIL (6 h): 0.4 mg/dL | TC (6 h): 72.8 mg/dL | TG (6 h): 49.4 mg/dL | TP (6 h): 5.4 g/dL | gamma-GTP (6 h): 1.4 IU/L | TERMINAL_BW (9 h): 180.6 g | APTT (9 h): 16.6 s | Bas (9 h): 0% | Eos (9 h): 0.6% | Fbg (9 h): 211 mg/dL | Hb (9 h): 13.1 g/dL | Ht (9 h): 39.7% | Lym (9 h): 79.6% | MCH (9 h): 21.7 pg | MCHC (9 h): 33.1% | MCV (9 h): 65.7 fL | Mono (9 h): 7.6% | Neu (9 h): 12.4% | PT (9 h): 12.3 s | Plat (9 h): 102.2 x10_4/uL | RBC (9 h): 603.4 x10_4/ul | Ret (9 h): 9.1% | WBC (9 h): 101.6 x10_2/uL | KIDNEY_L (9 h): 0.8 g | KIDNEY_R (9 h): 0.8 g | KIDNEY_TOTAL (9 h): 1.7 g | LIVER (9 h): 7.5 g | A/G (9 h): 2.4 | ALP (9 h): 849.2 IU/L | ALT (9 h): 37 IU/L | AST (9 h): 71.2 IU/L | BUN (9 h): 13.4 mg/dL | CRE (9 h): 0.4 mg/dL | Ca (9 h): 10.6 mg/dL | Cl (9 h): 106.2 meq/L | DBIL (9 h): 0.036 mg/dL | GLC (9 h): 182.8 mg/dL | IP (9 h): 10.4 mg/dL | K (9 h): 4.7 meq/L | LDH (9 h): 92.6 IU/L | Na (9 h): 138.4 meq/L | PL (9 h): 126.8 mg/dL | RALB (9 h): 3.8 g/dL | TBIL (9 h): 0.4 mg/dL | TC (9 h): 75.6 mg/dL | TG (9 h): 24.6 mg/dL | TP (9 h): 5.4 g/dL | gamma-GTP (9 h): 2.2 IU/L | TERMINAL_BW (24 h): 200.3 g | APTT (24 h): 15.9 s | Bas (24 h): 0% | Eos (24 h): 0.8% | Fbg (24 h): 202.8 mg/dL | Hb (24 h): 13 g/dL | Ht (24 h): 39.3% | Lym (24 h): 83.6% | MCH (24 h): 21.6 pg | MCHC (24 h): 33.2% | MCV (24 h): 65 fL | Mono (24 h): 8.2% | Neu (24 h): 7.4% | PT (24 h): 12.1 s | Plat (24 h): 117.3 x10_4/uL | RBC (24 h): 605 x10_4/ul | Ret (24 h): 9.9% | WBC (24 h): 102.9 x10_2/uL | KIDNEY_L (24 h): 0.9 g | KIDNEY_R (24 h): 0.9 g | KIDNEY_TOTAL (24 h): 1.9 g | LIVER (24 h): 8.5 g | A/G (24 h): 2.2 | ALP (24 h): 1031.8 IU/L | ALT (24 h): 41.6 IU/L | AST (24 h): 73.8 IU/L | BUN (24 h): 18.4 mg/dL | CRE (24 h): 0.5 mg/dL | Ca (24 h): 11.3 mg/dL | Cl (24 h): 105 meq/L | DBIL (24 h): 0.016 mg/dL | GLC (24 h): 184.4 mg/dL | IP (24 h): 9.9 mg/dL | K (24 h): 5 meq/L | LDH (24 h): 96.8 IU/L | Na (24 h): 141 meq/L | PL (24 h): 149.2 mg/dL | RALB (24 h): 3.8 g/dL | TBIL (24 h): 0.4 mg/dL | TC (24 h): 80.8 mg/dL | TG (24 h): 57.2 mg/dL | TP (24 h): 5.6 g/dL | gamma-GTP (24 h): 1.4 IU/L
